Legend:
SD rats [1] = assay: long-term toxicity test in SD rats, thirteen-week consecutive intragastric administration and four-week convalescence; details: for nontoxic dosage: 13-week consecutive intragastric administration
Description: 2. […] The tested samples are formulated into suspensions by milling with 0.5% CMC—Na; intragastric administration (10 ml/kg) every day for consecutive 13 weeks; on each day, after administration, the general conditions of the animals are observed, and weight and amount of ingestion are determined once every week. In 24 hours after the last administration, half of rats in each tested group are fasted overnight, blood samples are withdrawn via femoral arteries, and the rats are dissected, and the indexes of blood cytology and biochemics, gloss anatomy and histopathological examination are preformed. The administration to remaining half rats is stopped, and the convalescence is observed; general conditions are observed and weight and amount of ingestion are determined once every week. After 4 weeks, the observation is complete, and the half of rats in each tested group are fasted overnight, blood samples are withdrawn via femoral arteries, and the rats are dissected, and the indexes of blood cytology and biochemics, gloss anatomy and histopathological examination are preformed.

Cox-1 = target: T1, Cox-1 (Ovis aries, UniProt P05979); assay: inhibiting activity to COX-1 (TMPD colorimetric, 590 nm); format: biochemical; details: tested at 300, 100, 30, 10 μmol/L (positive control 100, 30, 10, 3)
T1 construct: purchased Cayman, USA
T1 sequence (P05979 25-600): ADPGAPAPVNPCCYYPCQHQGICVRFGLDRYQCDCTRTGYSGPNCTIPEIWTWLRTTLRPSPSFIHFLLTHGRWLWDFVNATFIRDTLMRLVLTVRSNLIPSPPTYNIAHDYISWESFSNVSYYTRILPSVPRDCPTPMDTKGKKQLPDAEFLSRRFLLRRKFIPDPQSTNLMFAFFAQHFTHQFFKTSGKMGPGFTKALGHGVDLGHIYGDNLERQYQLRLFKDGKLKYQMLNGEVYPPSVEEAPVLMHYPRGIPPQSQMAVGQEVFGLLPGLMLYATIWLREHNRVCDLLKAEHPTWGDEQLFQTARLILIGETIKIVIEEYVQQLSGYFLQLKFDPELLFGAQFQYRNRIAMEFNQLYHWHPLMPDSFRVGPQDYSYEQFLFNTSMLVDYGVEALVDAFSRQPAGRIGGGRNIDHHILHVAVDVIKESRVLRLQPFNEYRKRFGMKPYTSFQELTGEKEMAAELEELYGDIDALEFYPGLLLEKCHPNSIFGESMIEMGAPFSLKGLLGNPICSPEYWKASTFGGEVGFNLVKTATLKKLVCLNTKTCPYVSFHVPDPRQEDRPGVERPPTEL
Description: (§1) 2.5.1 The Inhibiting Activity to COX-1/COX-2
(§2) (1) In 220 ul of reaction system, mixed buffer (1×), heme, COX-1/COX-2, and the compound to be tested, are sequentially added, and are incubated for 5 minutes at 25° C.;
(§3) (2) Adding chromogenic substrate (TMPD) and arachidonic acid;
(§4) (3) Carefully shaking the plate for several seconds, then incubating for 15 minutes at 25° C.;
(§5) (4) Detecting absorption value at 590 nm.
(§6) Fitting data of concentration (μmol/L) and corresponding inhibition rate (%) via Microsoft EXCEL software to get a trendline, so as to obtain the half-effective inhibiting concentration (IC50) of each tested enzyme.

[2] = tested on: auricle tumefaction of mice caused by xylene; assay: auricle tumefaction of mice caused by xylene; format: in vivo; details: 3 h after xylene
Description: 90 healthy Kunming species of Mus musculus albus are selected, male, weight 18˜22 g, totally 9 tested groups, and each group of 10 mice, said tested groups comprising:
At 0.5 h before modeling, groups (8) and (9) are administrated tested drugs, and other groups are administrated tested drugs at 1 h before modeling. During modeling, the right ears of mice are coated with xylene at concentration of 30 μl/per ear to inflame the ear, and the left ears are performed no treatment. Once 3 h after coating xylene, the animals are sacrificed, and two ears of each mouse are cut, and ear wafers are obtained by making holes at the same positions of ears with puncher with diameter of 8 mm, and then are weighted via an electronic balance.
The tumefaction degree refers to the weight difference of the weight of inflamed ear wafer minus non-inflamed ear wafer. The tumefaction rate tumefaction degree/the weight of normal ear wafer×100‰ The average value of the tumefaction degree and tumefaction rate of each tested group is compared, so as to obtain the ability of anti-inflammation of each tested drug.
Using Microsoft EXCEL software, the average value of tumefaction degree of each tested group and the average value of control group are analyzed by means of t-test, and P<0.05 is considered as statistically significant difference.

Cox-2 = target: T2, Cox-2 (Homo sapiens, UniProt P35354); assay: inhibiting activity to COX-2 (TMPD colorimetric, 590 nm); format: biochemical; details: tested at 300, 100, 30, 10 μmol/L (positive control 100, 30, 10, 3)
T2 construct: purchased Cayman, USA
T2 sequence (P35354 18-604): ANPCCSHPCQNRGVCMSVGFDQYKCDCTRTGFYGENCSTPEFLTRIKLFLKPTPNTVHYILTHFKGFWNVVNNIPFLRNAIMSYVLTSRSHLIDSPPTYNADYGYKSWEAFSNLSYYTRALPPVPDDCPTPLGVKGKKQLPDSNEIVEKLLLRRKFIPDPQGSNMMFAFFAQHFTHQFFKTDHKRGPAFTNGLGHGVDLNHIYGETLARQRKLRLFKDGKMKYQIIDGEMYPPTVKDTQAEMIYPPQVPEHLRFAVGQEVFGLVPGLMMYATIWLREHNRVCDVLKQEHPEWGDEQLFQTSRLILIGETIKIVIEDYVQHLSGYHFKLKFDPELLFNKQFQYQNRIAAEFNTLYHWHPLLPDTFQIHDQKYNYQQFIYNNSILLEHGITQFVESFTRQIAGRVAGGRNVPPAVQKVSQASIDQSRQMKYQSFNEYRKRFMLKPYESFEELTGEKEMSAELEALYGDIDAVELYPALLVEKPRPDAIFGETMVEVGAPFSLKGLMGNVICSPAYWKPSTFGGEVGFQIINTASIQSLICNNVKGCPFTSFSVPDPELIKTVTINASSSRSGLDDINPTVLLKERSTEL
Description: as §1, §2, §3, §4, §5, §6

SD rats [3] = assay: toxicity test in SD rats, four-week consecutive intragastric administration; details: for animals dead during 4 weeks administration: 10 rats per group; for nontoxic dosage: four-week consecutive intragastric administration
Description: 2. […] The tested samples are formulated into suspensions by milling with 0.5% CMC—Na; intragastric administration every day (10 ml/kg) for consecutive 4 weeks; on each day, after administration, the general conditions of the animals are observed, and weight and amount of ingestion are determined once every week. In 24 hours after the last administration, the rats are fasted overnight, blood samples are withdrawn via femoral arteries, and the rats are dissected, and the indexes of blood cytology and biochemics, gloss anatomy and histopathological examination are preformed.

Row | SMILES | animals dead during thirteen-week administration (SD rats [1]; 50 mg/kg ig daily, 20 rats per group) | gastrointestinal tract toxicity (SD rats [1]; 13-week ig, rats, S 50, 25, RS 50, R 400, 200, 100, R:S=6:1 200, 100, 50 mg/kg) | nontoxic dosage (SD rats [1]; rats) | IC50 (Cox-1) | tumefaction degree ([2]; 10 mg/kg ig) | tumefaction degree ([2]; 20 mg/kg ig) | IC50 (Cox-2) | animals dead during 4 weeks administration (SD rats [3]; 80 mg/kg ig daily) | gastrointestinal tract toxicity (SD rats [3]; four-week ig, rats, S 80, 40, RS 80, R 480, 240, 120, R:S=6:1 320, 160, 80 mg/kg) | nontoxic dosage (SD rats [3]; rats) | tumefaction degree ([2]; 20 mg/kg ip) | tumefaction degree ([2]; 40 mg/kg ig) | tumefaction degree ([2]; 40 mg/kg ip) | tumefaction degree ([2]; 80 mg/kg ig) | animals dead during 4 weeks administration (SD rats [3]; 40 mg/kg ig daily)
1 | CC(C(=O)O)c1ccc2c(c1)CC(=O)c1ccccc1S2 (racemic) [RS, 10,11-dihydro-alpha-methyl-10-oxo-dibenzo[b,f]tiazem-2-acetic acid, reference compound] | 2 animals | produces significant gastrointestinal tract toxicity | 25 mg/kg | 153 µM | 5.2 ± 2.9 mg | 3.7 ± 2.5 mg | 7.6 µM | 2 animals | produces significant gastrointestinal tract toxicity | 40 mg/kg | – | – | – | – | –
2 | C[C@@H](C(=O)O)c1ccc2c(c1)CC(=O)c1ccccc1S2 [R, R-10,11-dihydro-alpha-methyl-10-oxo-dibenzo[b,f]tiazem-2-acetic acid] | – | – | 200 mg/kg | > 300 µM | – | – | 48.6 µM | – | – | 240 mg/kg | 3.5 ± 2.0 mg | 3.8 ± 2.8 mg | 2.3 ± 1.8 mg | 2.5 ± 1.4 mg | –
3 | C[C@H](C(=O)O)c1ccc2c(c1)CC(=O)c1ccccc1S2 [S, S-10,11-dihydro-alpha-methyl-10-oxo-dibenzo[b,f]tiazem-2-acetic acid] | – | – | 12.5 mg/kg | 186 µM | 4.9 ± 2.3 mg | 3.1 ± 3.2 mg | 21.6 µM | four | – | 20 mg/kg | – | – | – | – | one

Reference: US20110224276A1, “OPTICAL ISOMER OF PHENYLPROPIONIC ACID AND ITS MEDICINAL USE” (priority 2008, published 2011)
